Assay results published in patent publication US8138168B1 (Takeda Pharmaceutical Company Limited, priority 2007, dated 2012).
Read-outs that look alike come from different tables or passages of the source.

Molecular target: T1, Recombinant human renin (Homo sapiens, UniProt P00797)
T1 construct: isolate the active form (residues 67-406); made in house; host or cells: FreeStyle 293-F cells (transient expression of pcDNA3.1(+)/hREN)
T1 sequence (P00797 67-406): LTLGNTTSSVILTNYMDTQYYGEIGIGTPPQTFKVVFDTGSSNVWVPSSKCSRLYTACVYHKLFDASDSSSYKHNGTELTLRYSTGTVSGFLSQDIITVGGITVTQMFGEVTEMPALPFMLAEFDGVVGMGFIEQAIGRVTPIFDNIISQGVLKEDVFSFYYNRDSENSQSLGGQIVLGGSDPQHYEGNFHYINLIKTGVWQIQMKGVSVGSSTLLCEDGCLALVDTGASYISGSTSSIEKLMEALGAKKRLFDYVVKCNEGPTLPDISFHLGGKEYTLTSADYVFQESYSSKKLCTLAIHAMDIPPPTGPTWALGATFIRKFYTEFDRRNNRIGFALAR
Test: In vitro enzymatic activity assay of renin inhibitors (fluorogenic peptide substrate)
Assay type: biochemical
How it was run: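 Enzyme: recombinant human renin, 3 nM final, 10 min compound pre-incubation at 37 °C; buffer 50 mM Hepes pH 7.4 with 0.1 mg/mL BSA or extra 2% BSA; 5% DMSO.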

[1] = read-out: IC50 of Exemplified Compounds Against Renin

Compound	IC50 [1]	IC50
CNC(Cc1ccccc1)C(=O)N1CCCC(c2nc3ccccc3[nH]2)C1 (centres unmarked) [Compound 64, 1-(3-(1H-benzo[d]imidazol-2-yl)piperidin-1-yl)-2-(methylamino)-3-phenylpropan-1-one]	> 1000 nM	
CCOc1ccc(-c2ccc(C[C@@H](N)CC(=O)N3CCC[C@@H](c4nc5ccccc5n4CCCOC)C3)cc2)cn1 [Compound 138, (R)-3-amino-4-(4-(6-ethoxypyridin-3-yl)phenyl)-1-((R)-3-(1-(3-methoxypropyl)-1H-benzo[d]imidazol-2-yl)piperidin-1-yl)butan-1-one]	< 100 nM	
COCCCn1c([C@@H]2CCCN(C(=O)C[C@H](N)Cc3ccc4ccccc4c3)C2)nc2cc(C)ccc21 [Compound 105, (R)-3-amino-1((R)-3-(1-(3-methoxypropyl)-5-methyl-1H-benzo[d]imidazol-2-yl)piperidin-1-yl)-4-(naphthalen-2-yl)butan-1-one]	< 100 nM	
N[C@@H](CC(=O)N1CCCC(c2nc3ccccc3[nH]2)C1)Cc1cccc2ccccc12 (stereo partly drawn) [Compound 38, (3R)-1-(3-(1H-benzo[d]imidazol-2-yl)piperidin-1-yl)-3-amino-4-(naphthalen-1-yl)butan-1-one]	> 1000 nM	
Cc1cccc(C[C@@H](N)CC(=O)N2CCCC(c3nc4ccccc4[nH]3)C2)c1 (stereo partly drawn) [Compound 43, (3R)-1-(3-(1H-benzo[d]imidazol-2-yl)piperidin-1-yl)-3-amino-4-m-tolylbutan-1-one]	> 1000 nM	
CCCNC(=O)N1CCCC(c2nc3ccccc3[nH]2)C1 (centres unmarked) [Compound 17, 3-(1H-benzo[d]imidazol-2-yl)-N-propylpiperidine-1-carboxamide]	> 1000 nM	
COCCCn1c([C@@H]2CCCN(C(=O)C[C@H](N)Cc3ccc(-c4ccc(N(C)C)nc4)cc3)C2)nc2ccccc21 [Compound 147, (R)-3-amino-4-(4-(6-(dimethylamino)pyridin-3-yl)phenyl)-1-((R)-3-(1-(3-methoxypropyl)-1H-benzo[d]imidazol-2-yl)piperidin-1-yl)butan-1-one]	< 100 nM	
COCCCn1c([C@@H]2CCCN(C(=O)[C@@H]3CN(C(=O)Oc4cccc(C(F)(F)F)c4)C[C@H]3N)C2)nc2ccccc21 [Compound 408, (3S,4R)-3-(trifluoromethyl)phenyl 3-amino-4-((R)-3-(1-(3-methoxypropyl)-1H-benzo[d]imidazol-2-yl)piperidine-1-carbonyl)pyrrolidine-1-carboxylate]		> 1000 nM

The next lines start with results.

IC50 [1]	Compound	IC50
< 100 nM	CC(=O)NCCn1c([C@@H]2CCCN(C(=O)C[C@H](N)Cc3ccc(-c4ccc(N)nc4)cc3)C2)nc2c(Cl)cccc21 [Compound 479, N-(2-(2-((R)-1-((R)-3-amino-4-(4-(6-aminopyridin-3-yl)phenyl)butanoyl)piperidin-3-yl)-4-chloro-1H-benzo[d]imidazol-1-yl)ethyl)acetamide]	
< 100 nM	COCCCn1c([C@@H]2CCCN(C(=O)C[C@H](N)Cc3ccc(-c4ccc(-n5c(C)n[nH]c5=O)cc4)cc3)C2)nc2ccccc21 [Compound 206, 4-(4′-((R)-2-amino-4-((R)-3-(1-(3-methoxypropyl)-1H-benzo[d]imidazol-2-yl)piperidin-1-yl)-4-oxobutyl)biphenyl-4-yl)-3-methyl-1H-1,2,4-triazol-5(4H)-one]	
< 100 nM	COCCCn1c([C@@H]2CCCN(C(=O)C[C@H](N)Cc3ccc(-c4ccc(C(=O)NCCOC)cc4Cl)cc3)C2)nc2ccccc21 [Compound 193, 4′-((R)-2-amino-4-((R)-3-(1-(3-methoxypropyl)-1H-benzo[d]imidazol-2-yl)piperidin-1-yl)-4-oxobutyl)-2-chloro-N-(2-methoxyethyl)biphenyl-4-carboxamide]	
100 to 1000 nM	COCCCn1c([C@@H]2CCCN(C(=O)[C@@H]3CN(S(=O)(=O)c4ccc5c(ccn5C)c4)C[C@H]3N)C2)nc2ccccc21 [Compound 360, ((3R,4S)-4-amino-1-(1-methyl-1H-indol-5-ylsulfonyl)pyrrolidin-3-yl)((R)-3-(1-(3-methoxypropyl)-1H-benzo[d]imidazol-2-yl)piperidin-1-yl)methanone]	
100 to 1000 nM	COCCCn1c([C@@H]2CCCN(C(=O)C[C@@H](N)COc3nc4ccccc4[nH]3)C2)nc2ccccc21 [Compound 434, (R)-4-(1H-benzo[d]imidazol-2-yloxy)-3-amino-1-((R)-3-(1-(3-methoxypropyl)-1H-benzo[d]imidazol-2-yl)piperidin-1-yl)butan-1-one]	
< 100 nM	COCCCn1c([C@@H]2CCCN(C(=O)C[C@H](N)Cc3ccc(-c4ccc(C(=O)NCCOC)nc4)cc3)C2)nc2ccccc21 [Compound 195, 5-(4-((R)-2-amino-4-((R)-3-(1-(3-methoxypropyl)-1H-benzo[d]imidazol-2-yl)piperidin-yl)-4-oxobutyl)phenyl)-N-(2-methoxyethyl)picolinamide]	
